Measurements as given in patent US20220409727A1, “Metal Complexes Bearing Bisstyryl-Bipyridine Ligand and Their Use as Photosensitizer Agent in One and Two-Photon Photodynamic Therapy” (Paris Sciences et Lettres, priority 2019, published 2022).
Read-outs that look alike come from different tables or passages of the source.

How the values were obtained:
[1] = test system: non-cancerous retinal pigment epithelium (RPE-1) cells; experiment: (Photo-)cytotoxicity on 2D cell monolayers, resazurin assay, RPE-1; conditions: for PI (480 nm): RPE-1, dark vs 480 nm (10 min, 3.1 J/cm^2); for PI (540 nm): RPE-1, dark vs 540 nm (40 min, 9.5 J/cm^2);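 as to all read-outs here: cells exposed to compound 4 h, medium exchanged, then irradiated or kept dark, 44 h further growth, viability by resorufin fluorescence (ex 540 nm, em 590 nm)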
Procedure: (§1) The human glioblastoma astrocytoma (U373) cell line was cultured in MEM medium supplemented with 10% FBS, 1% NEAA (non-essential amino-acids) and 1% penicillin/streptomycin. […] The human retinal epithelial cells (RPE-1, non-cancerous cells immortalized with hTERT) were cultured in DMEM-F12 medium supplemented with 10% FBS and 1% penicillin/streptomycin. All cell lines were obtained from the American Type Culture Collection (ATCC) and cultured at 37° C. and 5% CO2. Before an experiment, the cells were passaged three times.
(§2) The cytotoxicity of the compounds was assessed by measuring cell viability using a fluorometric resazurin assay. The cultivated cells were seeded in triplicates in 96 well plates with a density of 4000 cells per well in 100 μL of media. After 24 h, the medium was removed and the cells were treated with increasing concentrations of the compound diluted in cell media achieving a total volume of 200 μL. The cells were incubated with the compound for 4 h. After this time, the media was removed and replaced with 200 μL of fresh medium. For the phototoxicity studies, the cells were exposed to light with an Atlas Photonics LUMOS BIO irradiator. Each well was constantly illuminated with either a 480 nm or 540 nm irradiation. During this time, the temperature was maintained constantly at 37° C. The cells were grown in the incubator for additional 44 h. For the determination of the dark cytotoxicity, the cells were not irradiated and after the medium exchange directly incubated for 44 h. After this time, the medium was replaced with fresh medium containing resazurin with a final concentration of 0.2 mg/mL. After 4 h incubation, the amount of the fluorescent product resorufin was determined upon excitation at 540 nm and measurement its emission at 590 nm using a SpectraMax M2 Microplate Reader (Molecular Devices).
(§3) The obtained data was analyzed with the GraphPad Prism software.

[2] = Singlet oxygen measurement, indirect evaluation (RNO absorbance); format: physicochemical; conditions: indirect
Procedure: For the measurement in CH3CN: The samples were prepared in an air-saturated CH3CN solution containing the complex with an absorbance of 0.2 at the irradiation wavelength, N,N-dimethyl-4-nitrosoaniline aniline (RNO, 24 μM) and imidazole (12 mM). For the measurement in PBS buffer: The samples were prepared in an air-saturated PBS solution containing the complex with an absorbance of 0.1 at the irradiation wavelength, N,N-dimethyl-4-nitrosoaniline aniline (RNO, 20 μM) and histidine (10 mM). The samples were irradiated on 96 well plates with an Atlas Photonics LUMOS BIO irradiator for different times. The absorbance of the samples was measured during these time intervals with a SpectraMax M2 Microplate Reader (Molecular Devices). The difference in absorbance (A0−A) at 420 nm for the CH3CN solution or at 440 nm a PBS buffer solution was calculated and plotted against the irradiation times. From the plot the slope of the linear regression was calculated as well as the absorbance correction factor determined. The singlet oxygen quantum yields were calculated using the same formulas as used for the direct evaluation.

[3] = Singlet oxygen measurement, direct evaluation (1O2 luminescence at 1270 nm); format: physicochemical
Procedure: The samples were prepared in an air saturated CH3CN or D2O solution with an absorbance of 0.2 at 450 nm. This solution was irradiated in fluorescence quartz cuvettes (width 1 cm) using a mounted M450LP1 LED (Thorlabs) whose irradiation, centered at 450 nm, has been focused with aspheric condenser lenses. The intensity of the irradiation has been varied using a T-Cube LED Driver (Thorlabs) and measured with an optical power and energy meter. The emission signal was focused and collected at right angle to the excitation pathway and directed to a Princeton Instruments Acton SP-2300i monochromator. A longpass glass filter was placed in front of the monochromator entrance slit to cut off light at wavelengths shorter than 850 nm. As a detector an EO-817L IR-sensitive liquid nitrogen cooled germanium diode detector (North Coast Scientific Corp.) has been used. The singlet oxygen luminesce at 1270 nm was measured by recording spectra from 1100 to 1400 nm. For the data analysis, the singlet oxygen luminescence peaks at different irradiation intensities were integrated. The resulting areas were plotted against the percentage of the irradiation intensity and the slope of the linear regression calculated. The absorbance of the sample was corrected with an absorbance correction factor. As reference for the measurement Rose Bengal (Φ=76%) (Kochevar, I. E. and Redmond, R. W., 2000) was used and the singlet oxygen quantum yields were calculated using the following formula:
Φsample=Φreference*(Ssample/Sreference)*(Ireference/Isample)
Φ=singlet oxygen quantum yield, S=slope of the linear regression of the plot of the areas of the singlet oxygen luminescence peaks against the irradiation intensity, I=absorbance correction factor, […] of the irradiation source, A=absorbance of the sample at irradiation wavelength.

[4] = test system: mouse colon carcinoma (CT-26) cells; experiment: (Photo-)cytotoxicity on 2D cell monolayers, resazurin assay, CT-26; conditions: for PI (480 nm): CT-26, dark vs 480 nm (10 min, 3.1 J/cm^2); for PI (540 nm): CT-26, dark vs 540 nm (40 min, 9.5 J/cm^2); for IC50: compounds 1-3 as chloride salts
[5] = Luminescence quantum yield measurements; format: physicochemical; parameters: key: fraction, relative to [Ru(bipy)3]Cl2 reference in CH3CN (Φem=5.9%); conditions: CH3CN, room temperature, excitation at 355 nm
Procedure: For the determination of the luminescence quantum yield, the samples were prepared in an CH3CN solution with an absorbance of 0.1 at 355 nm. This solution was irradiated in fluorescence quartz cuvettes (width 1 cm) using a NT342B Nd-YAG pumped optical parametric oscillator (Ekspla) at 355 nm. The emission signal was focused and collected at right angle to the excitation pathway and directed to a Princeton Instruments Acton SP-2300i monochromator. As a detector a XPI-Max 4 CCD camera (Princeton Instruments) has been used. The luminescence quantum yields were determined by comparison with the reference [Ru(bipy)3]Cl2 in CH3CN (Φem=5.9%) (Nakamaru, K., 1982) applying the following formula:
Φem, sample=Φem, reference*(Freference/Fsample)*(Isample/Ireference)*(nsample/nreference)^2
Φem=luminescence quantum yield, F=fraction of light absorbed, I=integrated emission intensities, n=refractive index, A=absorbance of the sample at irradiation wavelength.

[6] = test system: human cervical carcinoma (HeLa) cells; experiment: (Photo-)cytotoxicity on 2D cell monolayers, resazurin assay, HeLa; format: cell-based; conditions: for PI (480 nm): dark vs 480 nm (10 min, 3.1 J/cm^2); for PI (540 nm): dark vs 540 nm (40 min, 9.5 J/cm^2)
Text: Before an experiment, the cells were passaged three times.

[7] = test system: mouse colon carcinoma (CT-26) cells
[8] = test system: human glioblastoma astrocytoma (U373) cells; experiment: (Photo-)cytotoxicity on 2D cell monolayers, resazurin assay, U373; conditions: for PI (480 nm): U373, dark vs 480 nm (10 min, 3.1 J/cm^2); for PI (540 nm): U373, dark vs 540 nm (40 min, 9.5 J/cm^2); for IC50: compounds 1-3 as chloride salts
Procedure: as §1, §2, §3

[9] = Emission measurement in CH3CN; format: physicochemical; conditions: room temperature, excitation at 355 nm
Procedure: The absorption of the samples was measured with a SpectraMax M2 Spectrometer (Molecular Devices). The emission was measured by irradiation of the sample in fluorescence quartz cuvettes (width 1 cm) using a NT342B Nd-YAG pumped optical parametric oscillator (Ekspla) at 355 nm. Luminescence was focused and collected at right angle to the excitation pathway and directed to a Princeton Instruments Acton SP-2300i monochromator. As a detector, a XPI-Max 4 CCD camera (Princeton Instruments) has been used.

[10] = test system: human glioblastoma astrocytoma (U373) cells
Procedure: as §1, §2, §3

[11] = Luminescence lifetime measurements; format: physicochemical; conditions: excitation at 355 nm; for τ/ns air (Lifetime): air saturated CH3CN; for τ/ns degassed (Lifetime): degassed CH3CN
Procedure: For the determination of the lifetimes, the samples were prepared in an air saturated and in a degassed CH3CN solution with an absorbance of 0.2 at 355 nm. This solution was irradiated in fluorescence quartz cuvettes (width 1 cm) using a NT342B Nd-YAG pumped optical parametric oscillator (Ekspla) at 355 nm. The emission signal was focused and collected at right angle to the excitation pathway and directed to a Princeton Instruments Acton SP-2300i monochromator. As a detector a R928 photomultiplier tube (Hamamatsu) has been used.

[12] = read-out: IC50 540 nm (40 min, 9.5 J/cm^2), CT-26, irradiation 540 nm (40 min, 9.5 J/cm^2)
[13] = read-out: IC50 dark, CT-26, dark, 4 h incubation
[14] = dark, 4 h incubation, compounds 1-3 as chloride salts, read-out: IC50 dark
[15] = read-out: IC50 480 nm (10 min, 3.1 J/cm^2), irradiation 480 nm (10 min, 3.1 J/cm^2), compounds 1-3 as chloride salts
[16] = read-out: IC50 540 nm (40 min, 9.5 J/cm^2), irradiation 540 nm (40 min, 9.5 J/cm^2), compounds 1-3 as chloride salts
[17] = read-out: IC50 480 nm (10 min, 3.1 J/cm^2), U373, irradiation 480 nm (10 min, 3.1 J/cm^2)
[18] = read-out: IC50 dark, U373, dark, 4 h incubation

| Compound | PI (480 nm) [1] | PI (540 nm) [1] | Singlet oxygen quantum yield, indirect 450 nm CH3CN [2] | Singlet oxygen quantum yield, indirect 450 nm PBS [2] | Singlet oxygen quantum yield, indirect 540 nm CH3CN [2] | Singlet oxygen quantum yield, indirect 540 nm PBS [2] | Singlet oxygen quantum yield, direct 450 nm CH3CN [3] | PI (480 nm) [4] | PI (540 nm) [4] | IC50 [4, 12] | IC50 [4, 13] | PI (480 nm) [6] | PI (540 nm) [6] | IC50 [6, 14] | IC50 [6, 15] | IC50 [6, 16] | IC50 [7] | IC50 [8, 17] | IC50 [8, 18] | IC50 [10] | further results |
| --- | --- | --- | --- | --- | --- | --- | --- | --- | --- | --- | --- | --- | --- | --- | --- | --- | --- | --- | --- | --- | --- |
| COc1ccc(/C=C/c2ccnc(-c3cc(/C=C/c4ccc(OC)cc4)ccn3)c2)cc1.COc1ccc(/C=C/c2ccnc(-c3cc(/C=C/c4ccc(OC)cc4)ccn3)c2)cc1.COc1ccc(/C=C/c2ccnc(-c3cc(/C=C/c4ccc(OC)cc4)ccn3)c2)cc1.F[P-](F)(F)(F)(F)F.F[P-](F)(F)(F)(F)F.[Ru+2] [Compound 3, [Ru((E,E′)-4,4′-Bis[p-methoxystyryl]-2,2′-bipyridine)3][PF6]2] | >1.9 | >2.2 | 48% | 6% | 49% | 5% | 52% | >5.2 | >4.3 | 23 ± 2.6 µM | > 100 µM | >6.5 | >8.8 | > 100 µM | 15.3 ± 1.4 µM | 11.3 ± 2.2 µM | 19.3 ± 2.1 µM | 41 ± 3.5 µM | > 100 µM | 51.3 ± 3.4 µM | ϕem (Luminescence Quantum Yield) [5]: 0.011; PI (480 nm) [8]: >2.4; PI (540 nm) [8]: >1.9; λem/nm (Emission maximum) [9]: 682 nm; τ/ns air (Lifetime) [11]: 76 ns; τ/ns degassed (Lifetime) [11]: 338 ns |
| C(=C\c1ccnc(-c2cc(/C=C/c3ccccc3)ccn2)c1)/c1ccccc1.C(=C\c1ccnc(-c2cc(/C=C/c3ccccc3)ccn2)c1)/c1ccccc1.C(=C\c1ccnc(-c2cc(/C=C/c3ccccc3)ccn2)c1)/c1ccccc1.F[P-](F)(F)(F)(F)F.F[P-](F)(F)(F)(F)F.[Ru+2] [Compound 1] | >3.2 | >3.2 | 66% | 5% | 61% | 3% | 65% | >4.9 | >3.0 | 33.4 ± 3.5 µM | > 100 µM | >3.4 | >2.1 | > 100 µM | 29.5 ± 1.2 µM | 48.7 ± 4.5 µM | 20.3 ± 1.8 µM | 51.7 ± 3.2 µM | > 100 µM | 83.1 ± 6.7 µM | ϕem (Luminescence Quantum Yield) [5]: 0.019; PI (480 nm) [8]: >1.9; PI (540 nm) [8]: >1.2; λem/nm (Emission maximum) [9]: 677 nm; τ/ns air (Lifetime) [11]: 86 ns; τ/ns degassed (Lifetime) [11]: 385 ns |
| [Ru(4,7-Diphenyl-1,10-phenanthroline)3][PF6]2 [reference compound] | 13.4 | 10.1 | 47% | 4% | 45% | 3% | 44% | 7.0 | 5.6 | 0.5 ± 0.2 µM | 2.8 ± 0.5 µM | 12.1 | 7.7 | 8.5 ± 0.4 µM | 0.7 ± 0.2 µM | 1.1 ± 0.2 µM | 0.4 ± 0.2 µM | 1.3 ± 0.2 µM | 10.1 ± 0.7 µM | 1.2 ± 0.3 µM | PI (480 nm) [8]: 7.8; PI (540 nm) [8]: 8.4 |
| F[P-](F)(F)(F)(F)F.F[P-](F)(F)(F)(F)F.[Ru+2].c1cnc2c(c1)ccc1cccnc12.c1cnc2c(c1)ccc1cccnc12.c1cnc2c(c1)ccc1cccnc12 [[Ru(1,10-phenanthroline)3][PF6]2, reference compound] |  |  | 23% | 2% | 22% | 2% | 25% |  |  | > 100 µM | > 100 µM |  |  | > 100 µM | > 100 µM | > 100 µM | > 100 µM | > 100 µM | > 100 µM | > 100 µM |  |
